Data: PubChem BioAssay AID743494 (The Scripps Research Institute Molecular Screening Center, 2014)
Calls of active or inactive are those of the source. No rule for the calls is given here.

Test system: Ga16 counterscreen cells, calcium fluorescence antagonism
Assay: Ga16 cell calcium inhibition, analog series – fluorescence, dose response, MedChem round 1, counter-screen for TAAR1 agonist project, SAR follow-up (AID 743494)

Row | Compound | IC50
1 | Cc1ccc(C(=O)CCN2CCC(c3ccccc3)C2)cc1 (stereo unspecified) | > 29.9 µM (inactive)
2 | O=C(CCN1C[C@@H](C(=O)O)[C@H](c2ccccc2)C1)NC1CCCC1 | > 29.9 µM (inactive)
3 | CC1CN(CCC(=O)c2ccc3c(c2)OCCO3)CC1c1ccccc1 (stereo unspecified) | > 29.9 µM (inactive)
4 | O=C(CCN1C[C@@H](C(=O)O)[C@H](c2ccccc2)C1)NCc1cccs1 | > 29.9 µM (inactive)
5 | CC(CN1CCCC1Cc1ccccc1)C(=O)c1ccc2c(c1)OCCO2 (stereo unspecified) | > 29.9 µM (inactive)
6 | O=C(CCN1C[C@@H](C(=O)O)[C@H](c2cccc(F)c2)C1)NC1CC1 | > 29.9 µM (inactive)
7 | O=C(CCN1CCC(c2ccccc2)C1)c1ccccc1 (stereo unspecified) | > 29.9 µM (inactive)
8 | O=C(CCN1CCC(O)(c2ccc(F)cc2)C1)c1ccc2c(c1)OCCO2 (stereo unspecified) | > 29.9 µM (inactive)
9 | NC(=O)CCN1C[C@H](c2ccccc2)[C@@H]2[C@H]1C1CCN2CC1 | > 29.9 µM (inactive)
10 | CC(CN1CCC(c2ccccc2)C1)C(=O)c1ccc2c(c1)OCCO2 (stereo unspecified) | > 29.9 µM (inactive)
11 | O=C(CCN1CCC(O)(c2ccccc2)C1)c1ccc2c(c1)OCCO2 (stereo unspecified) | > 29.9 µM (inactive)
